From publication PMC6620010, “Purification and characterization of Terfezia claveryi TcCAT-1, a desert truffle catalase upregulated in mycorrhizal symbiosis” (PLoS ONE, 2019) come the findings set out here.

In this assay the test system is T1, TcCAT-1.
T1 construct: native, purified from wild ascocarps (Zarzadilla de Totana, Lorca, Murcia, Spain); large-subunit monofunctional heme catalase, Clade 2, L2 group
Description: H2O2 decomposition at […] nm. The assay is classed as biochemical, Terfezia claveryi. Particulars: 10 mM H2O2, 0.1 M sodium phosphate pH 7.0, room temperature.

Consider `OCCS` [2-mercaptoethanol], for which the 50% inhibitory concentration (IC50) (text b58 prints 0.125 mM) turned out to be 130 ± 20 µM.

`NO` [hydroxylamine] returned an IC50 of 0.1 ± 0.01 µM.
